From patent US6849598B1, “Therapeutic compositions comprising bactericidal/permeability-increasing (BPI) protein products” (XOMA, priority 1995, dated 2005)

Experiments:
Assay type in all cases: cell-based
[1] = system: P. aeruginosa (ATCC 19660); experiment: Antibiotic susceptibility (MIC, Microscan® MIC Plus Type 2 panel) with rBPI21/P123 and EDTA; parameters: key to susceptibility interpretation of MIC (superscript): R: resistant; I: intermediate; S: susceptible; settings: for effect of EDTA added to the rBPI21/P123 formulation on susceptibility of the strain to the antibiotic: summary of Table 17
Description: In additional experiments, a BPI protein product, rBPI21, was formulated with an anti-bacterial activity enhancing poloxamer, specifically PLURONIC P123, and with various concentrations of EDTA, and was evaluated for its effect on the antibiotic susceptibility of a Pseudomonas aeruginosa (ATCC 19660). Antibiotic susceptibility was determined using Microscan® panel plates (Dade Microscan, West Sacramento, Calif.) that allow simultaneous determination of minimum inhibitory concentrations for a number of different antibiotics.
The antimicrobial susceptibility tests performed on the Microscan® panel plates are miniaturizations of the broth dilution susceptibility test. Antimicrobial agents are serially diluted in Mueller-Hinton broth (supplemented with calcium and magnesium, or with sodium chloride for oxacillin, or with thymidine phosphorylase for trimethoprim, sulfamethoxazole and trimethoprim/ sulfamethoxazole) to concentrations bridging the range of clinical interest. One well on the 96-well Microscan® plate is a growth control well that contains dehydrated broth only. The remaining wells contain dehydrated broth and antibiotic (or broth and biochemical reagent indicator), which is rehydrated to the desired concentration by inoculation of a standardized suspension of test organism. The chromogenic biochemical agent indicators are used to identify and characterize the species of bacteria based on detection of pH changes and substrate utilization. […] Gram-negative and gram positive organisms may be tested using any of the Microscan® panel plates (Microscan®, Dade Microscan, West Sacramento, Calif.). In these experiments with P. aeruginosa, the MIC Plus Type 2 panel plates were used. The concentrations of antibiotics tested in this panel plate are shown below in Table 16. The antibiotic susceptibility standards (interpretation of an MIC as resistant, intermediate or susceptible according to Microscan®'s NCCLS-derived standards) applicable to the gram-negative organisms that may be tested in each panel plate appear below in Table 16A.
For these experiments with P. aeruginosa, the following procedure was performed: The organism was streaked onto TSA plates (Remel, Lenexa, Kans.) and incubated for 18-24 hours overnight. Well-isolated A, colonies from the plates were emulsified in 3 ml of sterile Inoculum Water d(catalog no. B1015-2, MicrosScan® system, Dade Microscan, West Sacramento, Calif.) to a final turbidity equivalent to 0.5 McFarland Barium Sulfate standard. This cell suspension was vortexed for 2 to 3 seconds and 100 μl was transferred to glass tubes containing 25 ml of Inoculum Water with Pluronic-D (catalog no. B1015-7, MicroScan® system, Dade Microscan, West Sacramento, Calif.) (hereinafter “Pluronic Inoculum Water”), or 25 ml of Pluronic Inoculum Water into which rBPI21 in 0.2% PLURONIC P123, 0.002% TWEEN 80, 5mM sodium citrate, 150 mM NaCl (“rBPI21/P123”) had been diluted to 64 μg/ml rBPI21.
The 25 ml of this inoculum containing rBPI21 was mixed by inversion and poured into a tray. The inoculum was drawn up into a manual 96-well pipetting system (RENOK^− rehydrator-inoculator system, Dade Microscan, West Sacramento, Calif.) designed for use with the Microscan® panel plates, and 110 μl of the inoculum was delivered to each well of a Microscan® MIC Plus Type 2 panel plate. When added to the wells, this inoculum achieves a final bacterial concentration of 4×10^5 to 7×10^5 CFU/ml. The panel plates were then incubated at 35° C. for 15-24 hours and read visually for cell growth.
No growth was defined as a slight whiteness in the well or a clear broth. Growth appeared as turbidity which could take the form of a white haze throughout the well, a white button in the center of the well, or a fine granule growth throughout the well. All wells were read against a black indirectly lighted background. Visual results of the biochemical reactions were read into a database for bacterial identification.

A. baumannii [2] = experiment: Bactericidal activity with heat-treated PLURONIC P104 in serial 2-fold dilutions of serum; settings: formulated BPI protein product diluted with heat-treated PLURONIC P104 solution
Description: Additional experiments were performed to test therapeutic compositions, prepared by diluting a variety of formulated BPI protein products with heat-treated PLURONIC P104 solution, and tested against A. baumannii in serial 2-fold dilutions of serum.

A. baumannii [3] = experiment: Bactericidal activity in water, TSB, CSMHB or serum, CFU after 24 hours (Example 5)
Description: (§1) The bactericidal activity of therapeutic compositions comprising BPI protein product and PLURONIC F68, P103, P104, P105 or P123 were evaluated against the S. aureus and A. baumannii organisms of Example 1, the S. pneumoniae organism of Example 3, an E. faecium organism (Microscan® ID No. 16866), and a strain of P. aeruginosa from the American Type Culture Collection (ATCC No. 19660). Therapeutic compositions were formulated by adding the appropriate amount of poloxamer to a stock solution of 2.2 mg/mL rBPI21 (5 mM sodium citrate, 150 mM NaCl, without poloxamer), to achieve the desired 0.2% (w/v) poloxamer concentration, followed by sterile filtration. Formulated product was stored at 2-8° C. for up to 6 months. Sterile stock solutions of poloxamer were made by dissolving the poloxamer paste in water for injection (WFI, Kendall-McGaw) with mixing to a 1-5% concentration (w/v) at room temperature, followed by sterile filtration. Assays were conducted in 96-well microtiter plates using WFI, tryptic soy broth (TSB, Remel, Lenexa, Kans.), Mueller-Hinton Broth plus Cations (CSMHB, Remel), or 40% pooled human serum in CSMHB (Sigma, St. Louis, Mo.) as growth media, according to the general procedure described above in Examples 2 and 3.

S. aureus = experiment: as above
Description: as §1

[4] = system: E. faecium (Microscan® ID No. 16866); experiment: as above
Description: as §1

S. pneumoniae = experiment: as above; settings: Control 3 × 10^5
Description: as §1

[5] = rBPI21/P123 at 64 μg/ml rBPI21, With 0% EDTA
[6] = rBPI21/P123 at 64 μg/ml rBPI21, With 0.01% EDTA
[7] = rBPI21/P123 at 64 μg/ml rBPI21, With 0.05% EDTA
[8] = rBPI21/P123 at 64 μg/ml rBPI21, With 0.1% EDTA

`CO/N=C(\C(=O)N[C@@H]1C(=O)N2C(C(=O)O)=CCS[C@H]12)c1csc(N)n1` [Ceftizoxime] was tested, and the “Minimum Inhibitory Concentration of Antibiotic” value (shortened to “Minimum Inhibitory Concentration”) ([1]; Control (No BPI21)) was 32 µg/mL, the “susceptibility interpretation of MIC (superscript)” value (shortened to “susceptibility interpretation”) ([1]; Control (No BPI21)) was “I” and the “Minimum Inhibitory Concentration” value [1, 5] was 16 µg/mL. The “susceptibility interpretation” value [1, 5] was “I”, the “Minimum Inhibitory Concentration” value [1, 6] was under 2 µg/mL and the “susceptibility interpretation” value [1, 6] was “S”. The “Minimum Inhibitory Concentration” value [1, 7] was 8 µg/mL, the “susceptibility interpretation” value [1, 7] was “S” and the “Minimum Inhibitory Concentration” value [1, 8] was under 2 µg/mL. The “susceptibility interpretation” value [1, 8] was “S” and the “effect of EDTA added to the rBPI21/P123 formulation on susceptibility of the strain to the antibiotic” value (shortened to “effect of EDTA added”) [1] was “increasing the susceptibility”.

For `CO/N=C(\C(=O)N[C@@H]1C(=O)N2C(C(=O)O)=C(CSc3nc(=O)c(=O)[nH]n3C)CS[C@H]12)c1csc(N)n1` [Ceftriaxone], the “Minimum Inhibitory Concentration” value ([1]; Control (No BPI21)) was 16 µg/mL, the “susceptibility interpretation” value ([1]; Control (No BPI21)) was “I” and the “Minimum Inhibitory Concentration” value [1, 5] was 4 µg/mL. For the same molecule, the “susceptibility interpretation” value [1, 5] was “S”, the “Minimum Inhibitory Concentration” value [1, 6] was 8 µg/mL and the “susceptibility interpretation” value [1, 6] was “S”. The “Minimum Inhibitory Concentration” value [1, 7] was under 2 µg/mL, the “susceptibility interpretation” value [1, 7] was “S” and the “Minimum Inhibitory Concentration” value [1, 8] was under 2 µg/mL. The “susceptibility interpretation” value [1, 8] was “S” and the “effect of EDTA added” value [1] was “increasing the susceptibility”.

With `CC(C)(O/N=C(\C(=O)N[C@@H]1C(=O)N2C(C(=O)[O-])=C(C[n+]3ccccc3)CS[C@H]12)c1csc(N)n1)C(=O)O` [Ceftazidime] the “Minimum Inhibitory Concentration” value ([1]; Control (No BPI21)) was 2 µg/mL, the “susceptibility interpretation” value ([1]; Control (No BPI21)) was “S” and the “Minimum Inhibitory Concentration” value [1, 5] was under 1 µg/mL. For the same molecule, the “susceptibility interpretation” value [1, 5] was “S”, the “Minimum Inhibitory Concentration” value [1, 6] was under 1 µg/mL and the “susceptibility interpretation” value [1, 6] was “S”. For the same molecule, the “Minimum Inhibitory Concentration” value [1, 7] was under 1 µg/mL, the “susceptibility interpretation” value [1, 7] was “S” and the “Minimum Inhibitory Concentration” value [1, 8] was under 1 µg/mL. For the same molecule, the “susceptibility interpretation” value [1, 8] was “S”.

With `O=C(N[C@H](CO)[C@H](O)c1ccc([N+](=O)[O-])cc1)C(Cl)Cl` [Chloramphenicol] the “Minimum Inhibitory Concentration” value ([1]; Control (No BPI21)) was over 16 µg/mL, the “susceptibility interpretation” value ([1]; Control (No BPI21)) was “R” and the “Minimum Inhibitory Concentration” value [1, 5] was 8 µg/mL. For the same molecule, the “susceptibility interpretation” value [1, 5] was “S”, the “Minimum Inhibitory Concentration” value [1, 6] was 16 µg/mL and the “susceptibility interpretation” value [1, 6] was “I”. For the same molecule, the “Minimum Inhibitory Concentration” value [1, 7] was under 2 µg/mL, the “susceptibility interpretation” value [1, 7] was “S” and the “Minimum Inhibitory Concentration” value [1, 8] was under 2 µg/mL. The “susceptibility interpretation” value [1, 8] was “S” and the “effect of EDTA added” value [1] was “reversing resistance”.

B1: rBPI21: expression product of DNA encoding amino acid 1 to approximately 193 or 199 of BPI holoprotein, cysteine 132 substituted with alanine (protein, UniProt P17213 32-224, looked up, variant C132A)
chain: VNPGVVVRISQKGLDYASQQGTAALQKELKRIKIPDYSDSFKIKHLGKGHYSFYSMDIREFQLPSSQISMVPNVGLKFSISNANIKISGKWKAQKRFLKMSGNFDLSIEGMSISADLKLGSNPTSGKPTITASSCSSHINSVHVHISKSKVGWLIQLFHKKIESALRNKMNSQVCEKVTNSVSSELQPYFQTL
In the case of B1, the “serum concentrations at which bactericidal activity was observed” value (A. baumannii [2]) is reported as at most 6.25%, the “colony forming units after 24 hours of incubation” value (“colony forming units” below) (A. baumannii [3]; Serum (40% pooled human serum in CSMHB), Control 2 × 10^5) is reported as 2 × 10^5 and the “colony forming units” value (A. baumannii [3]; TSB, Control 3 × 10^6) is reported as 6 × 10^2. For the same molecule, the “colony forming units” value (A. baumannii [3]; Water, Control 2 × 10^6) was under 100, the “colony forming units” value (S. aureus; Serum (40% pooled human serum in CSMHB), Control 4.2 × 10^5) was >1 × 10^5 and the “colony forming units” value (S. aureus; TSB, Control 5.4 × 10^5) was 5.7 × 10^5. For the same molecule, the “colony forming units” value (S. aureus; Water, Control 8.2 × 10^5) was 3.2 × 10^4, the “colony forming units” value ([4]; TSB, Control 5 × 10^5) was 5 × 10^5 and the “colony forming units” value ([4]; Water, Control 4 × 10^5) was 100. The “colony forming units” value (S. pneumoniae) was 5 × 10^4.
